Measured values reported in patent publication US5958906A, “Phospholipid derivatives containing higher elements of the fifth main group” (ASTA-Medica Aktiengesellschaft, priority 1992, dated 1999).
Converted amounts (≈) assume the structure as drawn. Counter-ions that a name gives are not always drawn.

Tests used:
KB cells [1] = assay: Soft-Agar-Colony-Assay with KB cells in vitro; assay type: cell-based; details: colony formation inhibited up to 90%, effective criterion EC90 <10 μg/ml; for IC90: Homo sapiens
Experimental: Tests with KB cells were carried out as a Soft-Agar-Colony-Assay in accordance with Salmon and Hamburger, N. Engl.
(§1) Values exceeding 100 indicate tumor regressions in relation to the starting size of the tumor. […] Values below 0 indicate that the tumor growth was stimulated. KB in vivo represents a tumor model in which KB cells are transplanted subcutaneously into naked NMRI mice. DMBA in vivo represents a tumor model in which tumors of the milk inguinal were induced chemically in female test rats by administering Dimethylbenzanthracen (DMBA). EC90 values which exceed 10 are considered ineffective.

[2] = test system: tumors of the milk inguinal induced by Dimethylbenzanthracen (DMBA); assay: DMBA in vivo: tumors of the milk inguinal induced chemically by Dimethylbenzanthracen, growth inhibition index; parameters: species or system female test rats; details: orally, >100 = tumor regression
Experimental: (§2) The substances were administered orally in solution with the help of an esophagus probe (respective dosages in parenthesis).
(§3) Indicated is the growth inhibition index (Wachstumshemmungsindex WHI) in percent which was reached and which can be calculated as follows: [formula] with WC =median tumor weight difference in the reference group based on day 0
(§4) Wt =corresponding value for the treated group
as §1

[3] = test system: Leishmania mexicana (promastigotes); assay: Inhibiting effect on Leishmania mexicana (promastigotes); assay type: cell-based; details: partially mean values of two values
Experimental: Tests measuring the inhibiting effect on Leishmania mexicana (promastigotes) were conducted in accordance with the procedures set forth in R. F. Stieger et al., European Journal of Biochemistry, Vol.105 (1980), pp.163-175 and D. T. Hardt, and F. R. Opperdoes, Molecular and Biochemical Parasitology Vol. 113 (1984), pp. 159-172.
Inhibiting effect on Leishmania mexicana (promastigotes),
indicated as EC90 values (partially mean values of two values)

L1210-cell = L1210-cell culture experiment; assay type: cell-based; details: 90% growth inhibition in vitro vs control
Description: The EC90 is the concentration of an anti-tumor substance in μg/ml which inhibits the growth of cancer cells by 90% in vitro compared to a control experiment without addition of the anti-tumor substance.

KB cells [4] = assay: KB in vivo: KB cells transplanted subcutaneously into naked NMRI mice, growth inhibition index; details: orally, >100 = tumor regression
Experimental: as §2, §3, §4, §1

[5] = LD50 on single administration per os in the mouse; details: in vivo, po

SMILES | EC90 (KB cells in vitro) (KB cells [1]) | IC90 (KB cells [1]) | also measured
CCCCCCCCCCCCCCCCCCOCC(COP(=O)([O-])OCC[As+](C)(C)C)OC (racemic) [Example 24, 1-0-Octadecyl-2-0-methyl-rac-glycerophosphoarsenocholine] | 2.8 µg/mL |  | WHI (DMBA in vivo), growth inhibition index ([2]; 4 × 100 mg/kg): 73%; EC90 inhibiting effect on Leishmania mexicana (promastigotes) [3]: 0.9 µg/mL; EC90 ([3]; molar): 1500 nM
CCCCCCCCCCCCCCCCCCOCC(COP(=O)([O-])OCC[P+](C)(C)C)OC (racemic) [Example 25] |  | 2.7 µg/mL (≈ 4.99 µM) | EC90 ([3]; Leishmania mexicana): 1.8 µg/mL; EC90 ([3]; Leishmania mexicana, molar): 3300 ± 370 nM
CCCCCCCCCCCCCCCCCCOP(=O)([O-])OCC[As+](C)(C)C [Example 1, 2-[[(Octadecyloxy)hydroxyphosphenyl]oxy]-As,As,As-trimethyl ethyl arsonium inner salt] | 3.2 µg/mL |  | EC90 (L1210-cell): 2.9 µg/mL; WHI (KB in vivo), growth inhibition index (KB cells [4]; 1 × 511 mg/kg): 42.9%; WHI (DMBA in vivo), growth inhibition index ([2]; 4 × 100 mg/kg): 112.8%; EC90 inhibiting effect on Leishmania mexicana (promastigotes) [3]: 0.8 µg/mL; EC90 ([3]; molar): 1800 nM
CCCCCCCCCCCCCCCCOP(=O)([O-])OCC[As+](C)(C)C [Example 2, 2-[[(hexadecyloxy)hydroxyphosphinyl]oxy]-As,As,As-trimethyl ethyl arsonium inner salt] | 27 µg/mL |  | 
CCCCCCCC/C=C\CCCCCCCCCCCCOP(=O)([O-])OCC[As+](C)(C)C [Example 3, 2-[[(cis-13-docosenyloxy)hydroxyphosphinyl]oxy-As,As,As-trimethylethylarsoniuminner salt] | > 10 µg/mL |  | LD50 [5]: > 1470 mg/kg
CCCCCCCCCCCCCCCCCCOP(=O)([O-])OCC[P+](C)(C)C [Example 4, 2-[[(octadecyloxy)hydroxyphosphinyl]oxy]-P,P,P-trimethyl ethyl phosphonium inner salt] |  | 3.1 µg/mL | WHI (KB in vivo), growth inhibition index (KB cells [4]; 2 × 316 mg/kg): 111%; WHI (DMBA in vivo), growth inhibition index ([2]; 4 × 147 mg/kg): 108.7%; EC90 ([3]; Leishmania mexicana): 0.8 µg/mL; EC90 ([3]; Leishmania mexicana, molar): 1800 ± 220 nM
CCCCCCCCCCCCCCCCOP(=O)([O-])OCC[P+](C)(C)C [Example 5, 2-[[(hexadecyloxy)hydroxyphosphinyl]oxy]-P,P,P-trimethyl ethyl phosphonium inner salt] |  | > 10 µg/mL | 
CCCCCCCC/C=C\CCCCCCCCCCCCOP(=O)([O-])OCC[P+](C)(C)C [Example 6, 2-[[(Cis-13-docosenyloxy) hydroxyphosphinyl]oxy]-P,P,P-trimethylethyl phosphonium inner salt] |  | > 10 µg/mL | WHI (DMBA in vivo), growth inhibition index ([2]; 4 × 147 mg/kg): 43.9%
CCCCCCCCCCCCCCCCCCOP(=O)([O-])OCC[As+](CC)(CC)CC [Example 7, 2-[[(Octadecyloxy)hydroxyphosphinyl]oxy]-As,As,As-triethyl ethyl arsonium inner salt] | 3.0 µg/mL |  | 
CCCCCCCCCCCCCCCCOP(=O)([O-])OCC[As+](CC)(CC)CC [Example 8, 2-[[(Hexadecyloxy)hydroxyphosphinyl]oxy]-As,As,As-tri-ethyl ethyl arsonium inner salt] | > 10 µg/mL |  | 
CCCCCCCC/C=C\CCCCCCCCCCCCOP(=O)([O-])OCC[As+](CC)(CC)CC [Example 9, 2-[[Cis-13-docosenyloxy)hydroxyphosphinyl]oxy]-As,As,As-triethylethyl arsonium inner salt] | > 10 µg/mL |  | 
CCCCCCCCCCCCCCCCCCOP(=O)([O-])OCCC[As+](C)(C)C [Example 10, 3-[[(Octadecyloxy)hydroxyphosphinyl]oxy]-As,As,As-trimethyl propylarsonium inner salt] | 5.8 µg/mL |  | WHI (KB in vivo), growth inhibition index (KB cells [4]; 2 × 316 mg/kg): 104%
CCCCCCCCCCCCCCCCOP(=O)([O-])OCCC[As+](C)(C)C [Example 11, 3-[[(Hexadecyloxy)hydroxyphosphinyl]oxy]-As,As,As-trimethyl propylarsonium inner salt] | > 10 µg/mL |  | 
CCCCCCCC/C=C\CCCCCCCCCCCCOP(=O)([O-])OCCC[As+](C)(C)C [Example 12, 3-[[(Cis-13-docosenyloxy)hydroxyphosphinyl]oxy]-As,As,As-trimethylpropyl arsonium inner salt] | > 10 µg/mL |  | 
CCCCCCCC/C=C\CCCCCCCCCCCCOP(=O)([O-])OCCC[P+](C)(C)C [Example 13, 3-[[(Cis-13-docosenyloxy)hydroxyphosphinyl]oxy]-P,P,P-tri-methylpropyl phosphonium inner salt] |  | > 10 µg/mL | 
CCCCCCCCCCCCCCCCCCOP(=O)([O-])OCCC[P+](C)(C)C [Example 14, 3-[[(Octadecyloxy)hydroxyphosphinyl]oxy]-P,P,P-trimethylpropyl phosphonium inner salt] |  | 3 µg/mL | 
CCCCCCCCCCCCCCCCOP(=O)([O-])OCCC[P+](C)(C)C [Example 15, 3-[[(Hexadecyloxy)hydroxyphosphinyl]oxy]-P,P,P-trimethylpropyl phosphonium inner salt] |  | > 10 µg/mL | 
CCCCCCCCCCCCCCCCCCCOP(=O)([O-])OCC[P+](C)(C)C [Example 16, 3-[[(Nonadecyloxy)hydroxyphosphinyl]oxy]-P,P,P-trimethyl-ethyl phosphonium inner salt] |  | 2.6 µg/mL | 
CCCCCCCCCCCCCCCCCCCCOP(=O)([O-])OCC[P+](C)(C)C [Example 17, 3-[[(Eicosyloxy)hydroxyphosphinyl]oxy]-P,P,P-trimethylethyl phosphonium inner salt] |  | 3 µg/mL | 
CCCCCCCCCCCCCCCCCCCOP(=O)([O-])OCC[As+](C)(C)C [Example 18, 2-[[(Nonadecyloxy)hydroxyphosphinyl]oxy]-As,As,As-trimethethyl arsonium inner salt] | 3.0 µg/mL |  | 
CCCCCCCCCCCCCCCCCCCCOP(=O)([O-])OCC[As+](C)(C)C [Example 19, 2-[[(Eicosyloxy)hydroxyphosphinyl]oxy]-As,As,As-trimethylethyl arsonium inner salt] | insoluble |  | 
CCCCCCCCCCCCCCCCCOP(=O)([O-])OCC[As+](C)(C)C [Example 20, 2-[[(Heptadecyloxy)hydroxyphosphinyl]oxy]-As,As,As-trimethylethyl arsonium inner salt] | 3.2 µg/mL |  | 
CCCCCCCCCCCCCCCCCCOP(=O)([O-])OCC[P+](CC)(CC)c1ccccc1 [Example 21, 2-[[(Octadecyloxy)hydroxyphosphinyl]oxy]-P,P-diethyl-P-phenyl-ethyl phosphonium inner salt] |  | 3.1 µg/mL | 
CCCCCCCC/C=C\CCCCCCCCCCCCOP(=O)([O-])OCC[P+](CC)(CC)c1ccccc1 [Example 22, 2-[[(Cis-13-docosenyloxy)hydroxyphosphinyl]oxy]-P,P-diethyl P-phenyl-ethyl phosphonium inner salt] |  | 3.1 µg/mL | 
CCCCCCCCCCCCC1CCC(COP(=O)([O-])OCC[As+](C)(C)C)CC1 (stereo not drawn) [Example 23, 2-[[(4'-Dodecylcyclohexyl)methyloxy)hydroxyphosphinyl]oxy]As,As,As-trimethylethyl arsonium inner salt] | > 10 µg/mL |  | 
